Laboratory results: US10183039B2, “Methods for the production of collagen IV” (Vanderbilt University, priority 2013, dated 2019)

Assays:
peroxidasin = molecular target: T1, peroxidasin (Mus musculus, UniProt Q3UQ28); test: In vitro basement membrane (uncrosslinked PFHR-9 matrix) reaction with halides and H2O2; assay type: biochemical; conditions: for S═N bond formation in isolated matrix: 10 mM phosphate pH 7.4, 100 mM KF, 1 mM H2O2, 1 h at 37° C.
T1 construct: Cultured murine PFHR9 cells synthesize collagen IV networks that contain sulfilimine crosslinks due to the activity of PXDN; endogenous in cells; host or cells: PFHR-9 cells (isolated matrix from KI-treated culture)
T1 sequence (Q3UQ28 24-1475): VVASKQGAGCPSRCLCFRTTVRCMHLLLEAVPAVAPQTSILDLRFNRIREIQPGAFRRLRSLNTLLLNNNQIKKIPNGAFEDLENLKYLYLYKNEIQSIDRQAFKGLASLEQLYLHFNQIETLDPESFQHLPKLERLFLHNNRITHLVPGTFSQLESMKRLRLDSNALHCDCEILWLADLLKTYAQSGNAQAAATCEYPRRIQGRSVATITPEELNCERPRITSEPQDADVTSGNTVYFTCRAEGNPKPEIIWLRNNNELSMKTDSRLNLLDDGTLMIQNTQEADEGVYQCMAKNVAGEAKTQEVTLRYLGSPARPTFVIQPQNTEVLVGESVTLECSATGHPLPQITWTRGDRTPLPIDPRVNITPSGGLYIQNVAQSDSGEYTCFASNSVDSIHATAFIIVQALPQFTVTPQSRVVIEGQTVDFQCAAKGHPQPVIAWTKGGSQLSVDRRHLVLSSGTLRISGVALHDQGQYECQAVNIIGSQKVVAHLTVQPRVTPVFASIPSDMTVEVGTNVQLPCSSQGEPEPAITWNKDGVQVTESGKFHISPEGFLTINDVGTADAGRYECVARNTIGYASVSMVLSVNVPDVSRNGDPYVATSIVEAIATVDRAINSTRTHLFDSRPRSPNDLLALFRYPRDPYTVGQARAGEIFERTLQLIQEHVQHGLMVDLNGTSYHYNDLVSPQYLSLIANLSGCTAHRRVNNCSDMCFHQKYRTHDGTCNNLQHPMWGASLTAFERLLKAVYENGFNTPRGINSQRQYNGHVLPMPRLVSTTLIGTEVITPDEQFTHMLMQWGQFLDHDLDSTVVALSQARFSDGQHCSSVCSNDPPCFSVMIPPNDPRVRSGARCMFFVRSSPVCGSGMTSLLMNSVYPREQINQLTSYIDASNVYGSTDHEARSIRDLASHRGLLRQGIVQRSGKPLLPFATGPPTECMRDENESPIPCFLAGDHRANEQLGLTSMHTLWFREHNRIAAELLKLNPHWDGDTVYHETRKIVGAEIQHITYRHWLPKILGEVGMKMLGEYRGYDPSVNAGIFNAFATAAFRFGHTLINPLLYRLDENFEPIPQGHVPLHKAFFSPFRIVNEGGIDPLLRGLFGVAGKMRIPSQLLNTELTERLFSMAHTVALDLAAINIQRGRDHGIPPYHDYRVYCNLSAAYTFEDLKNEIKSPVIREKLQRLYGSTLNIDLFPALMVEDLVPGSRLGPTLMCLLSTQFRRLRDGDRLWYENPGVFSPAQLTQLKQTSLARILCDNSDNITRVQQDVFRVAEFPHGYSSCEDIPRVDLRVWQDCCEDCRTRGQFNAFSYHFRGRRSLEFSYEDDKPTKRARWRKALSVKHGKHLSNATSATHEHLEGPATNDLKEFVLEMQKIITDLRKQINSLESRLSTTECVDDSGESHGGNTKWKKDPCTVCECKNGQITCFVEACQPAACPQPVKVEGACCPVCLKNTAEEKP
Protocol: (FIG. 8A) Matrix pellets isolated from KI-treated PFHR9 cell culture were extensively washed into 10 mM phosphate buffer (pH 7.4) supplemented with 100 mM KF to maintain ionic strength. Potassium salts of Cl— or Br— were added in indicated amounts. 1 hr reactions at 37° C. were initiated by addition of H2O2 to 1 mM and stopped by freezing at −20° C. Coomassie blue-stained gels after collagenase digestion of the samples and SDS-PAGE (FIG. 8B) Schematic of Br-Free chloride salt purification apparatus and setup. […] Reagent KCl was commercially obtained and unaltered prior to analysis. 100 mM solutions were made with 18MΩ deionized water. (FIG. 8C) Coomassie blue stained gel of collagenase digested PFHR-9 matrix reaction assay. Reaction buffered contained 10 mM phosphate buffer (pH 7.4), 100 mM Br-Free or Commercially obtained reagent grade KCl, as well as 1 mM H2O2 and 200 μM PHG where appropriate. (FIG. 8D) SDS-PAGE and coomassie blue stain of hPXDN (27.25 nM) and NC1 domain (1.3 μM) reaction and subsequent densiometric quantitation of S═N bond formation stiochiometry in response to NaBr addition. hPXDN and PFHR-9 NC1 domain were prepared and purified as described (5), except with all buffers for all purification steps (dialysis, chromatography, gradient ultracentrifugation) made with Br-Free chloride salts. Reactions were run for 10 minutes at 37° C. with 10 μM H2O2 as the terminal oxidant. Dose-response curve run in the presence of 1× Br-Free PBS. Reactions were quenched with 0.2 mg/ml Catalase, 20 mM Methionine, and 1 mM PHG. EC50 value±95% C.I. from two independent experiments with each data point plotted and fit.
Uncrosslinked PFHR9 matrix was extensively washed into 10 mM phosphate buffer (pH 7.4) that was supplemented with 100 mM KF to maintain ionic strength. One hour reactions at 37° C. were initiated by addition of H2O2 to 1 mM and stopped by freezing at −20° C. […] Samples were digested with collagenase at 37° C. overnight and visualized by SDS-PAGE using 12% gels under non-reducing conditions with Coomassie staining.
PFHR-9 cells treated with potassium iodide (1-10 mM) to eliminate NC1 hexamer crosslinks were used for basement membrane isolation. To test halide dependency, the inventors established halide-free conditions by washing extensively (at least five times) with 10 mM sodium phosphate pH 7.4. To try to extract or inactivate endogenous basement membrane peroxidase activity, the inventors extracted the matrix preparation twice with 2M guanidine-Cl, 50 mM Tris-Cl pH 7.5 and 10 mM EDTA-Na pH 8 followed by extensive washing with 1×PBS. Basement membrane was resuspended in the desired buffer with or without cofactors and inhibitors to examine in vitro NC1 crosslinking under various conditions. Basement membranes were collagenase solubilized to delineate collagen IV NC1 sulfilimine crosslink formation with SDS-PAGE and Coomassie blue staining membrane was isolated, washed extensively and resuspended in 1×PBS. Azide (0-10 mM) and 1 mM H2O2 were added and allowed to react for 1 h at 37° C. The matrix was pelleted, washed extensively with 1×PBS and solubilized with 1×PBS plus 2% (w/v) SDS. Solubilized proteins were reacted with 100 μM Tris[(1-benzyl-1H-1,2,3-triazol-4-yl)methyl]amine (Anaspec), 1 mM Tris(2-carboxyethyl)phosphine hydrochloride (ThermoFisher Pierce), 1 mM cupric sulfate and 100 μM biotin alkyne (PEG4 carboxamide-propargyl biotin; Life Technologies) for 1 h at 37° C. Click chemistry reactions were quenched with 1 mM 3′-azido-3′-deoxythymidine (Sigma). For avidin-HRP detection, samples were electrophoresed under reducing conditions, transferred to nitrocellulose membranes and probed with streptavidin-HRP according to manufacturer instructions (ThermoFisher Pierce). To isolate biotinylated proteins, the inventors precipitated click reaction products with two volumes of cold acetone to remove reactants, washed them with 70% (v/v) acetone and then resolubilized them in 1×PBS plus 2% SDS.

collagen IV NC1 hexamer = molecular target: T2, collagen IV NC1 hexamer (Mus musculus, UniProt P02463+P08122); test: Hypohalous acid oxidation of purified uncrosslinked NC1 hexamer; conditions: for effect of pretreatment on S═N bond formation by HOBr: NC1 hexamer pretreated with the substance, then treated with HOBr; for crosslinked dimeric subunits (percentage of dimeric subunit): 500 nM NC1 hexamer, 5 μM hypohalous acid, 30 min at 37° C. (FIG. 4A)
T2 sequence (P02463 1445-1669 limits assumed): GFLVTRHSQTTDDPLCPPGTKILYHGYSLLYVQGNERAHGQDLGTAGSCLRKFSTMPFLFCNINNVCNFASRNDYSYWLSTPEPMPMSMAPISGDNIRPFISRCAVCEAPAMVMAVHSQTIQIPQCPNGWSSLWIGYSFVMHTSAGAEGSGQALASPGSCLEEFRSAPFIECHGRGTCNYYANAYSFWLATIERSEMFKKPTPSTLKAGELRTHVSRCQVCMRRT
T2 sequence (P08122 1484-1707 limits assumed): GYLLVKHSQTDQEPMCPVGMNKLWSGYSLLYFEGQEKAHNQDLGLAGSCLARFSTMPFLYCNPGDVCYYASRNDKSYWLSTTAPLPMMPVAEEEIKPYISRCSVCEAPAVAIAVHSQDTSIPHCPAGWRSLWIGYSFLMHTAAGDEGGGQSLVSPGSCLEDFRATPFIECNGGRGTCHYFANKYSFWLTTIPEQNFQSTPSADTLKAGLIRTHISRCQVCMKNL
Protocol: (FIG. 4A) Five hundred nanomolar collagen IV NC1 hexamer (3 μM potential crosslinks) was incubated alone (control) or with 5 μM hypochlorous (HOCl) or hypobromous acid (HOBr) for 30 min at 37° C. […] (FIGS. 4B-D) 16 nM myeloperoxidase (MPO) (FIG. 4B), eosinophil peroxidase (EPO) (FIG. 4C) or lactoperoxidase (LPO) (FIG. 4D) were reacted with 500 nM NC1 hexamer (3 μM potential crosslinks) for varying time points in 1×PBS with or without 10 μM H2O2. In the case of LPO, all reactions proceeded for 60 min. Collagen IV-sulfilimine crosslink content was visualized after SDS-PAGE and Coomassie blue staining of the reactions. Each gel is representative of three independent experiments. PHG, phloroglucinol; MW, molecular weight.
FIGS. 9A-D. Chemical mechanism of sulfilimine formation within the NC1 hexamer. (FIG. 9A) Purified uncrosslinked NC1 hexamer (5 μM) was reacted for 5 minutes at 37° with the indicated amounts of hypohalous acids and analyzed by SDS-PAGE. […] Values represent mean±S.D. (n=3). (FIG. 7B) Uncrosslinked NC1 hexamer (1.3 μM) in Br-Free PBS was preoxidzed with indicated amounts of HOCl for 1 min at 37 C, followed by post-oxidation with the addition of 8 mol eq. HOBr (or HOCl as a control) which was reacted for an additional minute at 37° C., then quenched with 20 mM methionine. Gel is representative of two experiments (FIG. 9C) XIC analysis of the residual monomeric NC1 subunit following HOCl oxidation (10 mol eq) compared to input NC1 monomer after SDS-PAGE and in-gel trypsin digestion. ^16O addition to the methionine residues was confirmed by MS3 analysis. (FIG. 9D) Met93 oxidation pathway consistent with experimental data and the resultant enthalphic landscape for S═N bond formation within the NC1 hexamer.
(FIG. 15) Fifty micromolar of hypohalous oxidants were added to 5 μM uncrosslinked NC1 domains, and reacted for 5 minutes at 37° C. before quenching by adding L-methionine to 1 mM final concentration. […] Experiments were run in triplicate and analyzed by 12% non-reducing SDS-PAGE and ImageJ.
The efficiency of HOBr as a reagent was compared to other hypohalous acids, during a 5′ reaction with uncrosslinked hexamers containing 5 μM NC1 domains.
The inventors therefore tested the molar efficiency of oxidation of purified uncrosslinked NC1 hexamer with HOCl and HOBr (FIG. 9A). […] To test this, they pretreated uncrosslinked NC1 hexamer with varying concentrations of HOCl, then treated with HOBr. […] As an independent approach to testing the dead-end sulfoxide hypothesis, the inventors pretreated NC1 hexamer with escalating levels of H2O2, a reagent known to generate methionine sulfoxides (Liang et al., 2012). […] They next decided to directly visualize the peptide containing Met93, the S donor of the S═N bond, within the residual monomeric NC1 fraction after HOCl oxidation and compare its oxidation status to untreated NC1 hexamer.

PFHR-9 cells = test: Collagen IV sulfilimine crosslink formation in PFHR-9 cell culture (NC1 hexamer, SDS-PAGE); assay type: cell-based, mouse; conditions: for effect on NC1 dimer / crosslink formation in culture: PFHR9 matrix grown 5-8 days with potassium halide salts, SDS-PAGE; for IC50: halide/pseudohalide screen in cell culture, read-out: IC50, inhibition of S═N formation
[1] = matrix grown 5-8 days with potassium salts, 95% CI

[Cl-].[K+] [Br-free KCl, KCl]
dimer formation with bromide-free chloride as halide source (peroxidasin; 100 mM Br-free chloride salt, 1 mM H2O2, isolated PFHR-9 matrix): did not support dimer formation to levels comparable with untreated controls

[F-].[K+] [Fluoride, potassium fluoride]
S═N bond formation in isolated matrix (peroxidasin): inert

OO [H2O2, hydrogen peroxide]
effect of pretreatment on S═N bond formation by HOBr (collagen IV NC1 hexamer): dose-dependent decrease in the crosslinking efficacy of HOBr | sulfilimine bond formation in isolated basement membrane (peroxidasin; inhibitor removed, with versus without H2O2 (FIG. 2C)): Sulfilimine bonds formed rapidly

OCl [HOCl, hypochlorous acid]
crosslinked dimeric subunits (percentage of dimeric subunit) (collagen IV NC1 hexamer): increased significantly | crosslinked dimeric subunits (percentage of dimeric subunit) (collagen IV NC1 hexamer; listed as hypochlorous acid): yielded crosslinked dimeric subunits | concentration required to drive S═N bond formation (collagen IV NC1 hexamer; 5 μM NC1 hexamer, 5 minutes at 37° (FIG. 9A)): 50 µM | effect of pretreatment on S═N bond formation by HOBr (collagen IV NC1 hexamer): decreased with pretreatment of increasing levels of HOCl | S═N bond formation as share of total Met93 oxidized (collagen IV NC1 hexamer; oxidation event 1 (OE1), S—Cl or S—Br halosulfonium intermediate): 19%

[Br-].[K+] [KBr, potassium bromide]
effect on NC1 dimer / crosslink formation in culture (PFHR-9 cells): dimer enhancement | EC50 (PFHR-9 cells; halide screen in cell culture, matrix grown 5-8 days with potassium salts, 95% CI, read-out: EC50, enhancement of S═N formation): 75 µM

N#C[S-].[K+] [KSCN, potassium thiocyanate]
effect on NC1 dimer / crosslink formation in culture (PFHR-9 cells): dimer inhibition | effect on NC1 dimer / crosslink formation in culture (PFHR-9 cells; listed as SCN^−): potent inhibitor of peroxidasin-mediated crosslink formation | IC50 (PFHR-9 cells; [1]): 17 µM

[I-].[K+] [potassium iodide]
S═N bond formation in isolated matrix (peroxidasin): demonstrated no S═N formation | S═N bond formation in isolated matrix (peroxidasin; listed as KI): did not faciliate crosslinking | effect on NC1 dimer / crosslink formation in culture (PFHR-9 cells): dimer inhibition | IC50 (PFHR-9 cells; [1]): 84 µM | formation of collagen IV crosslinks (PFHR-9 cells; inhibitor present during cellular deposition of basement membrane, FIG. 2A: PHG 50 μM, MMI 1 mM, KI 10 mM, 3-AT 10 mM, BAPN 500 μM, putrescine 2.5 mM): inhibited collagen IV crosslink formation
